Laboratory results from patent publication US9254273B2, “Compositions and methods for treating Alzheimer's disease and related disorders and promoting a healthy nervous system” (Icahn School of Medicine at Mount Sinai, priority 2004, dated 2016).
Entries after “also recorded” stand apart in the source; their conditions may differ. Read-outs that look alike come from different tables or passages of the source.

Tests used:
[1] = LDH assay of cell toxicity; assay type: cell-based; details: all concentrations tested, 50-250 μM, not shown
Tg2576 mice [2] = assay: Aβ peptide content (ELISA) in the brain of Tg2576 mice on high-fat diet plus pinitol; assay type: in vivo, mouse; details: 12-month old female Tg2576 mice, high-fat diet plus pinitol in drinking water (600 mg/liter), from 4 months of age
From the text: This study assessed A∃ peptide contents in the brain and in the periphery (serum) of 12-month old female Tg2576 mice in response to chronic treatment, initiating at 4 month of age, with a high-fat (HF) diet or HF diet plus pinitol (N=3-4 per group). Gender-age-matched Tg2576 mice maintained on standard rodent laboratory diet (LF diet) served as controls. High-fat diet and standard laboratory diet containing equal % of cholesterol per g/diet were purchased from Research Diet, Inc. (New Brunswick, N.J.) (Ho et al, FASEB J 2004; 18:902-204). Pinitol (Humanetics Corp.) was provided by incorporation into drinking water (600 mg pinitol/liter water), which is available ad libitum. […] For quantitative assessment of A∃ peptides (Xiang et al. Gene Expr. 2002, 10:271-278), frozen pulverized brain tissues were homogenized in 5.0 M guanidine buffer, diluted (1:10) in phosphate-buffered saline containing 0.05% (v/v) Tween-20 and 1 mM Pefabloc protease inhibitors (Roche Biochemicals, Indianapolis, Ind.) and centrifuged for 20 min at 4° C. Total Aβ1-40 or Aβ1-42 was measured by sandwich ELISA (BioSource, Camarillo, Calif.) according to the manufacturer's instructions. Serum specimens were assessed directly using the same ELISA according to the manufacturer's instructions.

[3] = history of use, animal and human clinical scientific studies; cited from earlier work
γ-secretase [4] = assay: In vitro γ-secretase assay in extracts obtained from CHO-APPswe cells; assay type: biochemical; details: data not shown
Method: (§1) For assessment of γ-secretase activity, cell monolayers were rinsed twice with ice-cold PBS on ice, scraped from tissue culture dishes and centrifuged (1,500 rpm, 10 min, 4° C.). Cell pellets were then resuspended (0.5 ml/10 cm dish) in homogenization buffer (10 mM MOPS pH 7.0, 10 mM potassium chloride, 1× complete protease inhibitor (PI) (Roche Molecular Biochemicals, Germany) and homogenized by passing cell suspensions through a 23-gauge needle 10 times. Homogenates were then centrifuged (2,500 rpm, 15 min at 4° C.) to remove unbroken cells and nuclei. The supernatant (membrane and post-nuclear supernatant) was then centrifuged (14,000 rpm, 20 min, 4° C.) and rinsed in homogenization buffer. Membranes were then resuspended (0.5 ml/10 cm dish) in assay buffer (150 mM sodium citrate pH 6.4; 1×PI) and incubated at (2 hr) at 37° C. in 25 μl of incubation buffer per assay sample to allow for generation of the CTF-γ cleavage product; negative control samples were maintained on ice. CTF-γ cleavage products (as well as CTF-α and CTF-β) were resolved electrophoretically in 10-20% Tris-Tricine gels (Bio Rad Laboratories, CA), and identified using an anti APP polyclonal C8 antibody. Immunoreactivities were visualized autoradiographically using a chemiluminescence detection kit (SuperSignal; Pierce Biotechnology, Rockford, Ill.). […]

GSK-3 = GSK-3 activity in the brain of Tg2576 mice; assay type: in vivo, mouse; details: Tg2576 mice treated with D-pinitol
γ-secretase [5] = assay: Aβ peptide content in conditioned media by ELISA (γ-secretase readout) in pinitol-treated H4 cells; assay type: cell-based, human
Method: For quantitative assessment of A∃ peptides (Xiang et al. Gene Expr. 2002, 10:271-278), frozen pulverized brain tissues were homogenized in 5.0 M guanidine buffer, diluted (1:10) in phosphate-buffered saline containing 0.05% (v/v) Tween-20 and 1 mM Pefabloc protease inhibitors (Roche Biochemicals, Indianapolis, Ind.) and centrifuged for 20 min at 4° C. Total Aβ1-40 or Aβ1-42 was measured by sandwich ELISA (BioSource, Camarillo, Calif.) according to the manufacturer's instructions. Serum specimens were assessed directly using the same ELISA according to the manufacturer's instructions.
(§2) In this study, cultured human glioma H4-cells with constitutive APP751 expression were treated with increasing concentrations of pinitol, and then cellular ∀- and ∃-secretase activity as well as A∃ peptide contents in the conditioned media were assessed in response to pinitol treatment over time. Growth and maintenance of H4-APP751 cells were as described in Qin et al. (J. Biol. Chem. 2002; 278:50970-50977). Confluent cell cultures were treated with increasing concentration of pinitol. At 24 and 48 hours after pinitol treatment, cells were harvested for secretase activity assays and conditioned media were collected for measurement of A∃ peptide contents. The ∀-secretase (FIG. 7A) and ∃-secretase (FIG. 7B) activities in pinitol-treated cells were measured using commercially available kits (R&D Systems). Harvested cells were homogenized in supplied buffers and homogenate was added to a secretase-specific APP peptide conjugated to the reporter molecules EDANS and DABCYL. […] Cleavage of the peptide by the secretase physically separates the EDANS and DABCYL, allowing the release of a fluorescent signal. The level of ∀-secretase (FIG. 7A) or ∃-secretase (FIG. 7B) enzymatic activity is proportional to the fluorometric reaction in the homogenate. […] A∃ peptides were measured by ELISA as described above. In FIG. 7, each value represents Mean±SEM; n=4 cultures per assay; * P<0.05 vs. control (no pinitol treatment) group (2-tailed Student's t test).

[6] = insulin-resistant and hyperinsulinemic monkeys; cited from earlier work
β-secretase = molecular target: T1, β-secretase (Homo sapiens, UniProt P56817); assay: Cell-based β-secretase activity assay (fluorometric kit) in pinitol-treated H4 cells; details: cultured H4 cells, increasing concentrations of pinitol, 24 and 48 hours
T1 construct: endogenous in cells; host or cells: H4-APP751 human glioma cells (homogenate)
T1 sequence (P56817 46-501): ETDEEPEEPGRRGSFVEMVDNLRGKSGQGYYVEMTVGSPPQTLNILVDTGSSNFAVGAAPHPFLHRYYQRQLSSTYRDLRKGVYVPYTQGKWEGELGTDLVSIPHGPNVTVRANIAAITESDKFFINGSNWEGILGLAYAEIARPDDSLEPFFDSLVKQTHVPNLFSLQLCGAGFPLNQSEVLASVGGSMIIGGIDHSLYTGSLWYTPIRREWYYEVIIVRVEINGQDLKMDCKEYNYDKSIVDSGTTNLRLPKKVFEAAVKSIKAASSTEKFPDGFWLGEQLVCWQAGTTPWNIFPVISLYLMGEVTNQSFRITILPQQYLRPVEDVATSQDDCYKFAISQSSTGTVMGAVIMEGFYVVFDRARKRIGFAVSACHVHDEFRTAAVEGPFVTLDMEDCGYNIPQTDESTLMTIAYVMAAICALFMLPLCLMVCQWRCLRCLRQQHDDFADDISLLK
Method: as §2, with “In FIG. 7, each value represents Mean±SEM; n=4 cultures per assay; * P<0.05 vs. control (no pinitol treatment) group (2-tailed Student's t test).” left out

α-secretase = assay: Cell-based α-secretase activity assay (fluorometric kit) in pinitol-treated H4 cells; parameters: species or system human; details: cultured H4 cells, increasing concentrations of pinitol, 24 and 48 hours
Method: as §2, with “In FIG. 7, each value represents Mean±SEM; n=4 cultures per assay; * P<0.05 vs. control (no pinitol treatment) group (2-tailed Student's t test).” left out

[7] = tested on: insulin receptor signal transduction; assay: Insulin receptor signal transduction in the brain of Tg2576 mice; assay type: in vivo, mouse
[8] = cited from earlier work
γ-secretase [9] = assay: In vitro γ-secretase assay (in vitro model of amyloidosis): CTF-γ from membrane-bound APP, H4-APPswe cells; assay type: biochemical, human
Method: as §1

Tg2576 mice [10] = assay: Cognitive function in Tg2576 mice; assay type: in vivo, mouse
NOTCH [11] = assay: Cleavage of NOTCH in the neocortex of Tg2576 transgenic mice; assay type: in vivo, mouse; details: compared to insulin-resistant and control Tg2576 mice, data not shown
NOTCH [12] = assay: γ-secretase-mediated cleavage of NOTCH in H4-APPswe cells; assay type: cell-based, human; details: FIG. 8B
From the text: The selectivity of D-pinitol action was further addressed by examining its effect on cleavage of the signaling molecule NOTCH. The “gamma-secretase” complex, consisting of presenilins (PS), nicastrin (NCT), APH-1 and PEN-2, catalyzes the intramembranous proteolysis of truncated Notch derivatives to generate NICD, respectively.

[13] = conditioned culture media, ELISA, increasing concentrations of pinitol
[14] = 80 mg/kg/day in drinking water from six months of age, 12-month old Tg2576 mice

## CO[C@H]1[C@H](O)[C@@H](O)[C@@H](O)[C@H](O)[C@@H]1O [D-pinitol]
[1]
  cell toxicity (LDH assay): no detectable cell toxicity
Tg2576 mice [2]
  β-amyloidogenesis in the brain: amelioration
Tg2576 mice [2]; listed as pinitol
  β-amyloidogenesis in the brain: reduced
[3]
  toxicity and safety in man: non-toxic and safe
γ-secretase [4]; CHO-APPswe cells
  Aβ1-40 peptide in the same tissue culture: corresponding reduction
γ-secretase [4]; extracts from CHO-APPswe cells
  formation of the ~7 kDa CTF-γ APP: blocked in a dose dependent fashion
GSK-3
  GSK-3 activity in the brain: restoration
γ-secretase [5]; [13]
  Aβ1-40 production: dose-dependent inhibition
  Aβ1-42 production: dose-dependent inhibition
γ-secretase [5]; cultured H4 cells, read out as Aβ1-40 and Aβ1-42 in conditioned media
  γ-secretase activity: robust inhibitory effect
[6]
  rate of glucose disappearance: increased
β-secretase
  β-secretase activity: no effect; also recorded: does not influence
α-secretase
  α-secretase activity: no effect; also recorded: does not influence
[7]; [14]
  PI3K-p85α: increased
  S473-AKT: increased
  total IRβ: not
[7]; 80 mg/kg/day in drinking water from six months of age, 12-month old Tg2576 mice, vs insulin resistant and control mice
  Y1162/1163-phosphorylated IRβ: increased
[7]; Tg2576 mice treated with D-pinitol
  insulin receptor signal transduction in the brain: restoration
[8]; normal rats given glucose
  blood glucose concentration: lower
[8]; streptozotocin-induced diabetic rats
  blood glucose concentration: lower
γ-secretase [9]; H4-APPswe cells, membrane-bound APP
  formation of the ~7 kDa CTF-γ APP fragment: blocked; also recorded: selective reduction
Tg2576 mice [10]; NIDDM-like insulin resistant Tg2576 mice
  cognitive impairment: beneficially influences
Tg2576 mice [10]; Tg2576 mice, 80 mg/kg body weight per day in drinking water, preliminary studies
  cognitive functions: promotes
NOTCH [11]
  cleavage of NOTCH in the neocortex: no inhibitory effect
NOTCH [12]
  cleavage of NOTCH: no inhibitory effect

## OC1C(O)C(O)C(O)C(O)C1O (stereo not drawn) [d-chiro-inositol, reference compound]
γ-secretase [9]; in vitro amyloidosis system
  β-amyloid formation in the in vitro system: no inhibitory effect
